Test results reported in patent publication US20180312463A1 (The Procter & Gamble Company, priority 2015, published 2018).
pEC50: −log10 of the molar value. Counter-ions that a name gives are not always drawn.

Tests used:
human TRPM8 [1] = assay: TRPM8 Protocol-FLIPR Assay (EC50 analysis of sensate analogs using TRPM8 activation); assay type: cell-based
Procedure: (§1) The term “TRPM8 agonist”, as used herein, refers to any compound, which when added to a TRPM8 receptor, according to the FLIPR method, as discussed herein, produces any increase in fluorescence over background.
(§2) TRPM8 Protocol-FLIPR Assay
(§3) To determine whether TRPM8 is activated, the intracellular calcium ion (Ca^2+) level was measured from transfected cells with the TRPM8 receptor sequence (SEQ ID NO:). […] Trypsin was inactivated by addition of 8 ml growth medium. Cells were transferred to a 50 ml tube and centrifuged at 850 rpm for 3 minutes to remove medium. After centrifugation, a pellet of cells was formed in the bottom of the tube separating them from the supernatant solution. […] Fluo-4 AM is a fluorescent dye used for quantifying cellular Ca^2+ concentrations in the 100 nM to 1 microM range. At the end of 30 minutes, 45 ml of assay buffer (1× HBSS (Hank's Balanced Salt Solution), 20 mM HEPES (4-(2-Hydroxyethyl)-1-piperazineethanesulfonic acid)) was added to wash cells and the resulting mixture was then centrifuged at 850 rpm for 3 minutes to remove excess buffer and Fluo-4 AM calcium indicator.
(§4) The pelleted cells were re-suspended in 10 ml assay buffer and 90 μl aliquots (50,000 cells) per well delivered to a 96-well assay plate containing 10 μl of test compounds (1 mM in assay buffer, final concentration 100 μM) or buffer control and incubated at room temperature for 30 minutes. After 30 minutes, a plate was placed into a fluorometric imaging plate reader (FLIPR384 from Molecular Devices, Sunnyvale, Calif.) and basal fluorescence recorded (excitation wave length 488 nm and emission wave length 510 nm). Then 20 μl of 100 mM of TRPM8 agonist WS5 coolant in the assay buffer was added and fluorescence recorded. For determining the direct effect of test compounds on TRPM8, fluorescence was measured immediately after addition of each compound (TABLE 7).

human TRPM8 [2] = target: human TRPM8 (UniProt Q8R4D5); assay: as above; assay type: cell-based; details: HEK-293 cells stably transfected with human TRPM8, intracellular Ca2+ by Fluo-4 AM fluorescence
Procedure: as §1, §2, §3, §4

[3] = in vivo; cited from earlier work
[4] = Sensory evaluation of coolant activity: panelists brushed with dentifrice and rated cooling intensity; assay type: in vivo, human; details: dentifrice, up to 12 hours after brushing
Procedure: Dentifrices were prepared using conventional methods, such as the protocols described in U.S. Pat. No. 8,747,814, which contained no coolant (SAMPLE A) or having a coolant from TABLE 7 (SAMPLES B and C), in a flavor (peppermint) at 10 parts per million (ppm).
Sensory evaluation studies of coolant activity were conducted using a methodology patterned after the techniques described in M.C. Meilgaard, et al., Sensory Evaluation Techniques, 4th Ed. (2007). Five panelists brushed with a dentifrice from TABLE 8, having no coolant (SAMPLE A) or having a coolant from TABLE 7 (SAMPLES B and C), for two minutes, in a flavor (peppermint) at 10 parts per million (ppm). After brush expectoration, panelists then rinsed their mouth with 15 ml of an aqueous rinse and expectorated.

[5] = HEK-293 cells stably transfected with human TRPM8, intracellular Ca2+ by Fluo-4 AM fluorescence
[6] = HEK-293 cells stably transfected with human TRPM8, unit inferred

pEC50 (human TRPM8 [1]; [5])	TRPM8 (EC50 values) (human TRPM8 [2])	Structure (SMILES)	other results
7.70		CC(C)[C@@H]1CC[C@@H](C)C[C@H]1C(=O)NC[C@@H](NC(=O)CN)c1ccccc1Cl	
7.55		CC(C)[C@@H]1CC[C@@H](C)C[C@H]1C(=O)NC[C@@H](NC(=O)[C@H](C)N)C1CCCCC1	
8.05		CC(C)[C@@H]1CC[C@@H](C)C[C@H]1C(=O)NC[C@@H](NC(=O)[C@H](C)N)c1ccccc1 [Example 7]	
7.24		CC(C)[C@@H]1CC[C@@H](C)C[C@H]1C(=O)NC[C@H](Cc1ccccc1)NC(=O)CN [Example 16]	
6.43		CC(C)[C@@H]1CC[C@@H](C)C[C@H]1C(=O)NC[C@H](O)c1ccccc1 [Example 29]	
		CC(C)[C@@H]1CC[C@@H](C)C[C@H]1C(=O)NC[C@@H](N)c1ccccc1Cl [Example 34, hydrochloride]	pEC50 (human TRPM8 [2]): 6.11
		CC(C)[C@@H]1CC[C@@H](C)C[C@H]1C(=O)NC[C@@H](NC(=O)[C@H](C)NC(=O)OC(C)(C)C)c1ccccc1 [Example 43, dihydrochloride]	pEC50 (human TRPM8 [1]; [6]): 5.52
4.40		CC(C)[C@@H]1CC[C@@H](C)C[C@H]1C(=O)NCCNC(=O)CNC(=O)OC(C)(C)C [Example 49, tert-butyl (2-((2-((1R,2S,5R)-2-isopropyl-5-methylcyclohexane-1-carboxamido)ethyl)amino)-2-oxoethyl)carbamate]	
		CC(C)[C@@H]1CC[C@@H](C)C[C@H]1O [L-menthol]	cooling threshold (concentration where the cooling effect could be clearly recognized) [3]: about 800 ppb
		CC(C)[C@@H]1CC[C@@H](C)C[C@@H]1O [Molecule 1-neomenthol, 1-neomenthol]	cooling threshold (concentration where the cooling effect could be clearly recognized) [3]: about 3,000 ppb
		CC(C)[C@@H]1CC[C@@H](C)C[C@H]1C(=O)NC[C@@H](NC(=O)CN)c1ccccc1 [Molecule 1]	pEC50 (human TRPM8 [1]; [6]): > 8.70
8.57		CC(C)[C@@H]1CC[C@@H](C)C[C@H]1C(=O)NC[C@@H](NC(=O)[C@H](C)N)c1ccccc1 [Molecule 2]	
		CC(C)[C@@H]1CC[C@@H](C)C[C@H]1C(=O)NC[C@@H](NC(=O)[C@@H](C)N)c1ccccc1 [Molecule 17, (1R,2S,5R)-N-((S)-2-((R)-2-Aminopropanamido)-2-phenylethyl)-2-isopropyl-5-methylcyclohexane-1-carboxamide]	cooling response over time after brushing (summary of TABLE 9) [4]: high cooling over the course of 12 hours
		CC(C)[C@@H]1CC[C@@H](C)C[C@H]1C(=O)NC[C@H](NC(=O)[C@@H](C)N)c1ccccc1 [Molecule 33, (1R,2S ,5R)-N-((R)-2-((R)-2-Aminopropanamido)-2-phenylethyl)-2-isopropyl-5-methylcyclohexane-1-carboxamide]	cooling response over time after brushing (summary of TABLE 9) [4]: trailed off after 30 minutes
	Too high to measure	CC(C)[C@@H]1CC[C@@H](C)C[C@H]1C(=O)NC[C@H](NC(=O)OC(C)(C)C)c1ccccc1 [Molecule 52]	
	Too high to measure	CC(C)[C@@H]1CC[C@@H](C)C[C@H]1C(=O)NCCNC(=O)[C@@H]1C[C@H](C)CC[C@H]1C(C)C [Molecule 53]	
	Too high to measure	CCCCCCCCCCCCCCCC(=O)N[C@H](CNC(=O)[C@@H]1C[C@H](C)CC[C@H]1C(C)C)c1ccccc1 [Molecule 54]	
	Too high to measure	CC(C)[C@@H]1CC[C@@H](C)C[C@H]1C(=O)NC[C@@H](NC(=O)[C@@H](N)Cc1ccccc1)c1ccccc1 [Molecule 55]	
	Too high to measure	CC(C)[C@@H]1CC[C@@H](C)C[C@H]1C(=O)NCCN(CCN)CCN.Cl.Cl [Molecule 56]	
	Too high to measure	CC(C)[C@@H]1CC[C@@H](C)C[C@H]1C(=O)NC[C@H](NC(=O)[C@@H](C)NC(=O)OC(C)(C)C)c1ccccc1 [Molecule 57]	
	Too high to measure	CC(C)[C@@H]1CC[C@@H](C)C[C@H]1C(=O)NC[C@@H](NC(=O)OC(C)(C)C)c1ccccc1 [Molecule 58]	
	Too high to measure	CC(C)[C@@H]1CC[C@@H](C)C[C@H]1C(=O)NC[C@@H](NC(=O)[C@@H](C)NC(=O)OC(C)(C)C)c1ccccc1 [Molecule 59]	
		CC(C)[C@@H]1CC[C@@H](C)C[C@@H]1O [d-neomenthol]	cooling threshold (concentration where the cooling effect could be clearly recognized) [3]: about 25,000 ppb
